In article PMC7893915, “Assessing cross-resistance within the pyrethroids in terms of their interactions with key cytochrome P450 enzymes and resistance in vector populations” (Parasites & Vectors, 2021):
Where two headings read alike, the source gives them in different places.

How the values were obtained:
Ae. aegypti = test: WHO adult susceptibility test on field samples, Ae. aegypti; assay type: in vivo, Aedes aegypti; details: standard diagnostic doses
Text: The analyses conducted using data from An. gambiae (s.l.) samples were repeated using data from the An. funestus subgroup, An. arabiensis, An. coluzzii, An. funestus and An. gambiae samples (Additional file 2). The same approach was also used for susceptibility test data from Aedes albopictus and Ae. aegypti to investigate whether the same relationships could be detected in these vectors of arboviruses, as detailed in Additional file 3.
Additional File 3: Cross-resistance to pyrethroids within wild populations of Aedes vectors […]
If structural diversity within the pyrethroids is also associated with divergence in resistance within the Aedes vectors of arboviruses, this would lend weight to the findings for malaria vectors presented in the main manusc ript. Like the Anopheles vectors, target-site mutations and metabolic resistance are thought to be the main resistance mechanisms in Aedes mosquitoes. At least ten mutations in the Aedes aegypti Vgsc gene have been identified and the most widespread mutation, […]
mutations and is also associated with DDT resistance. More recently, the V1016G mutation has been found in Ae. albopictus in Viet Nam and Italy, and both this allele and the F1534C and F1534S […]
expression of cytochrome P450s has also been implicated in pyrethroid resistance within Aedes mosquitoes and there is evidence that metabolic resistance can confer cross -resistance to multiple pyrethroids. For example, over-expression of CYP9J28 is associated with metabolic resistance to […]
target site- and P450-mediated resistance in Ae. aegypti strains found variation in resistance to seven pyrethroids and hypothesised that some patterns of resistance could be linked to structural differences, but also noted that general conclusions are challenging to make without a greater number of compounds with a single modification to compare. No studies of structure activity relationships using a wide range of pyrethroids and P450s from Aedes mosquitoes have been conducted to-date, but data on resistance in wild populations are available. A wider range of pyrethroids are more typically tested by studies of resistance in Aedes vectors, compared to Anopheles vectors, although these studies are also more varied in terms of diagnostic dose, bioass ay method and life cycle stage, making comparisons across studies difficult. Here we selected studies that used a common experimental design and investigated correlations in resistance to pairs of pyrethroids mirroring part of the work on Anopheles vectors presented in the main manuscript.
We identified all instances within a public insecticide resistance database where an Aedes field sample had been subdivided among tests for different pyrethroids. We then identified the most commonly used bioassay type across the new pyrethroid dataset, which was the WHO adult susceptibility test as described for malaria vectors, and the most commonly used diagnostic dose for […]
each compound (Table S2). […]
removed. Paired results were then extracted, and the mean values for the Pearson’s correlation coefficient were calculated for each pyrethroid pair using 1,000 bootstaps in SPSS Statistics v25.
Table S5. Diagnostic doses and data volumes for each pyrethroid.
Pyrethroid Most common dose Number of data points
The number of data points available for each pyrethroid from an Ae. aegypti sample that was used to test at least one other pyrethroid, using standard WHO susceptibility tests and standard diagnostic doses, is given.

[1] = system: An. funestus strain, FUMOZ-R; parameters: method as in PMID 26930058; details: strain with upregulated P450 levels without any target-site mutations; ref [47]; cited from earlier work
CYP9J5 = details: read-out: IC50 CYP9J5, inhibition of diethoxyfluorescein metabolism, cited from earlier work
[2] = system: P450 panel (CYP6M2, CYP6P3, CYP6P9a, CYP6P2, CYP9J5, CYP6Z3, CYP6Z2); test: P450 inhibition, whole P450 panel (mean across P450s); assay type: biochemical, Anopheles gambiae and An. funestus; details: for IC50: Anopheles gambiae and Anopheles funestus, mean of the seven P450s of Table S2, read-out: IC50 Mean across P450s
Text: Cytochrome P450 inhibition assays using fluorogenic probe substrates have become commonplace in drug discovery screening cascades and are a rapid method of screening for insecticide interactions with mosquito P450s to predict insecticide binding, metabolism, cross-resistance and synergism. In this study, the half maximal inhibitory concentration (IC50), which provides a value for inhibition of each P450 by each pyrethroid (also referred to as ‘binding affinity’), and the percentage depletion, which gives a value for metabolism of each pyrethroid by each P450 (also referred to as vulnerability to metabolic attack), were both included as parameters to establish a P450s structural activity relationship model. This model was used to understand both the chemistry of the pyrethroids and the interaction with mosquito P450s that function as monooxygenases in metabolic resistance, to predict cross-resistance liabilities in vivo. […] A low percentage depletion indicates low metabolism of the pyrethroid, which means that it may be less vulnerable to resistance mediated by P450s.
In addition, inhibition activity data for these pyrethroids exposed to CYP6Z3 from the An. gambiae Kisumu strain were also generated (Additional file 1).

[3] = Pair 1 deltamethrin vs etofenprox, N 29 paired Ae. aegypti samples
[4] = Pair 6 deltamethrin vs permethrin, N 136 paired Ae. aegypti samples
[5] = Pair 9 deltamethrin vs λ-cyhalothrin, N 67 paired Ae. aegypti samples
[6] = footnote a, ref Yunta et al. 2016[8]
[7] = Pair 4 permethrin vs etofenprox, N 31 paired Ae. aegypti samples
[8] = Pair 8 permethrin vs λ-cyhalothrin, N 56 paired Ae. aegypti samples
[9] = recombinant P450s, probe diethoxyfluorescein
[10] = Pair 3 λ-cyhalothrin vs etofenprox, N 21 paired Ae. aegypti samples
[11] = footnote b, ref Yunta et al. 2019[10]

| SMILES | Mean percent mortality (SE) (Ae. aegypti; [3]) | Mean percent mortality (SE) (Ae. aegypti; [4]) | Mean percent mortality (SE) (Ae. aegypti; [5]) | Mean percent mortality (SE) (Ae. aegypti; Pair 10 deltamethrin vs cyfluthrin, N 72 paired Ae. aegypti samples) | effectiveness with or without piperonyl butoxide (PBO), in words [1] | IC50 (CYP9J5; [6]) [µM] | IC50 [2] [µM] | Mean percent mortality (SE) (Ae. aegypti; [7]) | Mean percent mortality (SE) (Ae. aegypti; Pair 5 permethrin vs cyfluthrin, N 79 paired Ae. aegypti samples) | Mean percent mortality (SE) (Ae. aegypti; [8]) | IC50 [2, 9] [µM] | Mean percent mortality (SE) (Ae. aegypti; [10]) | Mean percent mortality (SE) (Ae. aegypti; Pair 7 λ-cyhalothrin vs cyfluthrin, N 25 paired Ae. aegypti samples) | IC50 (CYP9J5; [11]) [µM] | binding to the P450s panel, rank in words ([2]; among the six pyrethroids) | Mean percent mortality (SE) (Ae. aegypti; Pair 2 cyfluthrin vs etofenprox, N 22 paired Ae. aegypti samples) |
| --- | --- | --- | --- | --- | --- | --- | --- | --- | --- | --- | --- | --- | --- | --- | --- | --- |
| CC1(C)[C@H](C(=O)O[C@H](C#N)c2cccc(Oc3ccccc3)c2)[C@@H]1C=C(Br)Br [Deltamethrin, deltamethrin] | 90.68 (2.80) percent | 88.10 (1.66) percent | 85.64 (2.66) percent | 88.43 (1.94) percent | only effective when partnered with PBO | 6.1 | 5.5 |  |  |  |  |  |  |  |  |  |
| CC1(C)C(C=C(Cl)Cl)C1C(=O)OCc1cccc(Oc2ccccc2)c1 (centres unmarked) [Permethrin, permethrin] |  | 61.44 (2.40) percent |  |  | only effective when partnered with PBO | 6.5 |  | 63.39 (5.36) percent | 59.01 (3.18) percent | 70.10 (3.99) percent | 7.6 |  |  |  |  |  |
| CC1(C)[C@H](C(=O)O[C@H](C#N)c2cccc(Oc3ccccc3)c2)[C@@H]1/C=C(\Cl)C(F)(F)F (racemic) [λ-Cyhalothrin, λ-cyhalothrin] |  |  | 74.16 (3.55) percent |  |  |  |  |  |  | 84.52 (3.40) percent | 7.2 | 72.40 (4.52) percent | 66.90 (5.01) percent | 4.2 |  |  |
| Cc1c(COC(=O)[C@@H]2[C@H](/C=C(\Cl)C(F)(F)F)C2(C)C)cccc1-c1ccccc1 (racemic) [Bifenthrin, bifenthrin] |  |  |  |  |  |  |  |  |  |  | 9.8 |  |  | 2.5 | lowest binding |  |
| CCOc1ccc(C(C)(C)COCc2cccc(Oc3ccccc3)c2)cc1 [Etofenprox, etofenprox] | 21.59 (4.75) percent |  |  |  |  |  |  | 21.09 (4.89) percent |  |  | 7 | 16.81 (4.43) percent |  | 8 |  | 21.14 (5.32) percent |
